Results reported in US7671042B2, “Pharmaceutical compositions containing cyclodextrins and taxoids” (priority 1997, dated 2010).
Read-outs that look alike come from different tables or passages of the source.

Key:
beagle dogs = assay: Cardiovascular and respiratory effects following intravenous administration in anaesthetised beagle dogs; type: in vivo, beagle dog
Protocol: The following parameters were recorded or derived and served as indicators of the functional status of the various elements within the cardiovascular and respiratory systems. The units of measurement are stated in parenthesis.
Anaesthesia was induced by i.v. injection of sodium thiopentone and maintained i.v. by a mixture of α-chloralose and pentobarbitone sodium given as required. Body temperature was maintained.
The trachea was cannulated and the canule connected to a pneumotach screen to allow measurement of tidal volume (ml) and the derived parameters of respiration rate (br/min) and minute volume (ml). Catheters were introduced into the right femoral artery and a cephalic vein to facilitate measurements of blood pressure and the administration of vehicle, test substances and anaesthetic respectively. The femoral artery was connected to a heparin/saline filled pressure transducer, coupled to a Grass 7E polygraph. […]
Following a 30 minute stabilization period, the vehicle was administered i.v. at a dose volume of 7.0 ml/kG over a period of 15 minutes. […] The parameters were monitored for a least 45 minutes from the start of infusion. […]
All parameters including high resolution (50 mm/sec) recordings of the ECG were measured at 5 minute intervals during the stabilization period and at 0.5, 1, 2 and 5 minutes intervals post-dose following vehicle and drug administration. […]

[1] = aqueous
[2] = cited from earlier work

## CC(=O)O[C@H]1C(=O)[C@@]2(C)[C@H]([C@H](OC(=O)c3ccccc3)[C@]3(O)C[C@H](OC(=O)[C@H](O)[C@@H](NC(=O)c4ccccc4)c4ccccc4)C(C)=C1C3(C)C)[C@]1(OC(C)=O)CO[C@@H]1C[C@@H]2O [paclitaxel]
Beagle dogs; 6 and 60 mg/m^2 in Cremophor ELP:ethanol 1:1, i.v., animals 1 and 2, administration discontinued
  outcome of i.v. administration: death of the animals
Beagle dogs; dog, in vivo, iv
  reaction to intravenous administration: anaphylactic type reaction
[1]; 2% w/v acetyl-γ-cyclodextrin
  Dissolved Paclitaxel: 4.0 µg/mL
[1]; 5% w/v acetyl-γ-cyclodextrin
  Dissolved Paclitaxel: 8.8 µg/mL
[1]; 10% w/v acetyl-γ-cyclodextrin
  Dissolved Paclitaxel: 25.0 µg/mL
[1]; 20% w/v acetyl-γ-cyclodextrin
  Dissolved Paclitaxel: 48.0 µg/mL
[1]; 40% w/v acetyl-γ-cyclodextrin
  Dissolved Paclitaxel: 170 µg/mL
[1]; 40% w/v acetyl-γ-cyclodextrin, listed as Paclitaxel
  Dissolved Paclitaxel: 170.0 µg/mL
[2]; ambient temperature
  aqueous solubility: about 0.0005 mg/ml
[2]; room temperature
  aqueous solubility: about 0.5 μg/ml
